Where “and” joins values, the source holds several entries; their conditions need not be identical. Equal entries are not always repeated.
What was measured:
Test in all cases: radiometric filter-binding kinase assay, Kinase HotSpot
Conditions in all cases: compound 0.5 µM; ATP 10 µM
MAP3K9 (human) = MAP3K9 (human) (UniProt P80192)
ADRBK2 (human) = ADRBK2 (human) (UniProt P35626)
ABL1 (human) = ABL1 (human) (UniProt P00519)
BRAF (human) = BRAF (human) (UniProt P15056)
PTK2 (human) = PTK2 (human) (UniProt Q05397)
TSSK2 (human) = TSSK2 (human) (UniProt Q96PF2)
NEK9 (human) = NEK9 (human) (UniProt Q8TD19)
PRKCD (human) = PRKCD (human) (UniProt Q05655)
RAF1 (human) = RAF1 (human) (UniProt P04049)
LYN (human) = LYN (human) (UniProt P07948)
LIMK1 (human) = LIMK1 (human) (UniProt P53667)
DYRK2 (human) = DYRK2 (human) (UniProt Q92630)
DAPK2 (human) = DAPK2 (human) (UniProt Q9UIK4)
FGFR4 (human) = FGFR4 (human) (UniProt P22455)
ADRBK1 (human) = ADRBK1 (human) (UniProt P25098)
IGF1R (human) = IGF1R (human) (UniProt P08069)
STK16 (human) = STK16 (human) (UniProt O75716)
TGFBR1 (human) = TGFBR1 (human) (UniProt P36897)
CDC42BPA (human) = CDC42BPA (human) (UniProt Q5VT25)
MET (human) = MET (human) (UniProt P08581)
CDC42BPB (human) = CDC42BPB (human) (UniProt Q9Y5S2)
TEC (human) = TEC (human) (UniProt P42680)
IRAK4 (human) = IRAK4 (human) (UniProt Q9NWZ3)
RPS6KA6 KD1 KD2 (human) = RPS6KA6 KD1 KD2 (human) (UniProt Q9UK32)
PHKG2 (human) = PHKG2 (human) (UniProt P15735)
EPHB3 (human) = EPHB3 (human) (UniProt P54753)
NEK3 (human) = NEK3 (human) (UniProt P51956)
CHEK1 (human) = CHEK1 (human) (UniProt O14757)
STK25 (human) = STK25 (human) (UniProt O00506)
ACVR1 (human) = ACVR1 (human) (UniProt Q04771)
PDGFRA (human) = PDGFRA (human) (UniProt P16234)
SRMS (human) = SRMS (human) (UniProt Q9H3Y6)
NEK6 (human) = NEK6 (human) (UniProt Q9HC98)
DSTYK (human) = DSTYK (human) (UniProt Q6XUX3)
CAMK1G (human) = CAMK1G (human) (UniProt Q96NX5)
PHKG1 (human) = PHKG1 (human) (UniProt Q16816)
NUAK2 (human) = NUAK2 (human) (UniProt Q9H093)
TLK2 (human) = TLK2 (human) (UniProt Q86UE8)
EPHA6 (human) = EPHA6 (human) (UniProt Q9UF33)
EPHB4 (human) = EPHB4 (human) (UniProt P54760)

Sequence of TGFBR1 (human) (P36897 whole entry, looked up): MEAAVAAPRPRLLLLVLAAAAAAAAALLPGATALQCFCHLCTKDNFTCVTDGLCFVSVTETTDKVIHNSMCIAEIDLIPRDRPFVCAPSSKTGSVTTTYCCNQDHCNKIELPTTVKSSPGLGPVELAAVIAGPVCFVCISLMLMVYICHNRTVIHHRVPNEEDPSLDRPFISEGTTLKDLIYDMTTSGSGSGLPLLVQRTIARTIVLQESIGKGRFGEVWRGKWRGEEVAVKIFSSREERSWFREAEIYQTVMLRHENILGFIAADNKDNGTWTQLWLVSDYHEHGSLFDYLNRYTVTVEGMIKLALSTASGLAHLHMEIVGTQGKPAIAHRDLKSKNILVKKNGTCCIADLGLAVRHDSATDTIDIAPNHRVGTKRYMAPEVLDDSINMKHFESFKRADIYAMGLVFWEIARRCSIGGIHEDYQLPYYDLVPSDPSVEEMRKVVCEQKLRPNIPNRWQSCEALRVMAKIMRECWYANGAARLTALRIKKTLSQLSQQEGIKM
Sequence of EPHB3 (human) (P54753 whole entry, looked up): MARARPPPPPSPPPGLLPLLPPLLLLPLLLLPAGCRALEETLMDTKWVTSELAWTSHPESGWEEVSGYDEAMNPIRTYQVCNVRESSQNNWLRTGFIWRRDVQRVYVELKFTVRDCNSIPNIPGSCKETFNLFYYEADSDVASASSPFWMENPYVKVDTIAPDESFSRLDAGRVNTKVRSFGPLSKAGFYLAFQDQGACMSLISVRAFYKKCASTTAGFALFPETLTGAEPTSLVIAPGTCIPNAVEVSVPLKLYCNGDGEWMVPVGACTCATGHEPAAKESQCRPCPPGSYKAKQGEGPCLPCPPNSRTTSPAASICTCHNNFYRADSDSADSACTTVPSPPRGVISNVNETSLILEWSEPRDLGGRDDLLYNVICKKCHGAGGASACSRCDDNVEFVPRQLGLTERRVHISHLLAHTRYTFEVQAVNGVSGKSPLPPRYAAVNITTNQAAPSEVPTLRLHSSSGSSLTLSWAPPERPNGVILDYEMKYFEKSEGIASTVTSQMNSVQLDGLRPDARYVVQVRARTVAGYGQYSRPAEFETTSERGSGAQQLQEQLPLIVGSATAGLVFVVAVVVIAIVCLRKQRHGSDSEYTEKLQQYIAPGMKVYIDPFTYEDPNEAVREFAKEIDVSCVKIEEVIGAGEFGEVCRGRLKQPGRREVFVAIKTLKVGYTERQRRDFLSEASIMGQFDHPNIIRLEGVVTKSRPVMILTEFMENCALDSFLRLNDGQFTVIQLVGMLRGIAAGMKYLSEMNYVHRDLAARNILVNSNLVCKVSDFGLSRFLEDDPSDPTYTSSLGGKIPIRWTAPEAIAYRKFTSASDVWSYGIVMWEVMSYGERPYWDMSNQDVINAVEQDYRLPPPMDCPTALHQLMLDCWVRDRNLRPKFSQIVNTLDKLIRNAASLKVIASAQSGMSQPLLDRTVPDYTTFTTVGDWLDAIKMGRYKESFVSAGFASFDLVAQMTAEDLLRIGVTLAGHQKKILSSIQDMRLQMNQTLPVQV
Sequence of PTK2 (human) (Q05397 whole entry, looked up): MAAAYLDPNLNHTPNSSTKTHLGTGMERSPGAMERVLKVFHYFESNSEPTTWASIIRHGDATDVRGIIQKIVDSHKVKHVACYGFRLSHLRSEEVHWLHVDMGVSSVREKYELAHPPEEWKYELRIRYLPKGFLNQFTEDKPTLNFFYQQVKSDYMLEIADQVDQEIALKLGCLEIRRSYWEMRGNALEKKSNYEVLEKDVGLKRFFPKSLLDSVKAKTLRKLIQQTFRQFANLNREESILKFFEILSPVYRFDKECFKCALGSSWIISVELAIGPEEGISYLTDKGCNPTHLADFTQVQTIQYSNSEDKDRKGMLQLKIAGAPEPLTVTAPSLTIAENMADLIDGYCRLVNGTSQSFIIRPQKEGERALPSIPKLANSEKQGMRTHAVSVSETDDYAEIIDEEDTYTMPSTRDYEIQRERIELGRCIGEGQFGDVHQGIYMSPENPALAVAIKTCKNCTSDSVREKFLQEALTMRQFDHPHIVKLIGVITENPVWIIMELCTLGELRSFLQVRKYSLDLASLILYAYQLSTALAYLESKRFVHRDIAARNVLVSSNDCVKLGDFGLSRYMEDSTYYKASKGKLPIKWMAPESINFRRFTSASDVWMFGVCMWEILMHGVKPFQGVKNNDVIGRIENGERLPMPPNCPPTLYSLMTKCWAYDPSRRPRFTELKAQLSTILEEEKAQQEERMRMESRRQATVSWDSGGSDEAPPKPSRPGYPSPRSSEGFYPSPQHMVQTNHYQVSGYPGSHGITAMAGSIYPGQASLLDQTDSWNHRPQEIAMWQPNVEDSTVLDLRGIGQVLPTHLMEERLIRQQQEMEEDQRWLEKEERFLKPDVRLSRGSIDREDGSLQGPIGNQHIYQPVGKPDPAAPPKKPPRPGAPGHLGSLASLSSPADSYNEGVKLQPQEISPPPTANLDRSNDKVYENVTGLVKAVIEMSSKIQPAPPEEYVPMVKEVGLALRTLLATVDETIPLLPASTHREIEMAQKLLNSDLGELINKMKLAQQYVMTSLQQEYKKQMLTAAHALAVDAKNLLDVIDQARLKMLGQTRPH
Sequence of LYN (human) (P07948 whole entry, looked up): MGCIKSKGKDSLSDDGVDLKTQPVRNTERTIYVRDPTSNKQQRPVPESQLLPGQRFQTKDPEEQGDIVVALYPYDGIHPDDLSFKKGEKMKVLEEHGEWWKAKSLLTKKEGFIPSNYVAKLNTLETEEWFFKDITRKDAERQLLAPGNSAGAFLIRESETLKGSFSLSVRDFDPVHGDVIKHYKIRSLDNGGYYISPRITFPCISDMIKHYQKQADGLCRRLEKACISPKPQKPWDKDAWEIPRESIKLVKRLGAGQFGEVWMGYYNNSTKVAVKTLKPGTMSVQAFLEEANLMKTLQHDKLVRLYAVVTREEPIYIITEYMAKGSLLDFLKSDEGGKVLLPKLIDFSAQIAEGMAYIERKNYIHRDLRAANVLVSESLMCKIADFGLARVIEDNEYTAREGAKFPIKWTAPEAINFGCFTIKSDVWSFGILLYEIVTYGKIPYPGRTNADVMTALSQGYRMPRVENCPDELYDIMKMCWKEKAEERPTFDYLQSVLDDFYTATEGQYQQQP
Sequence of ACVR1 (human) (Q04771 whole entry, looked up): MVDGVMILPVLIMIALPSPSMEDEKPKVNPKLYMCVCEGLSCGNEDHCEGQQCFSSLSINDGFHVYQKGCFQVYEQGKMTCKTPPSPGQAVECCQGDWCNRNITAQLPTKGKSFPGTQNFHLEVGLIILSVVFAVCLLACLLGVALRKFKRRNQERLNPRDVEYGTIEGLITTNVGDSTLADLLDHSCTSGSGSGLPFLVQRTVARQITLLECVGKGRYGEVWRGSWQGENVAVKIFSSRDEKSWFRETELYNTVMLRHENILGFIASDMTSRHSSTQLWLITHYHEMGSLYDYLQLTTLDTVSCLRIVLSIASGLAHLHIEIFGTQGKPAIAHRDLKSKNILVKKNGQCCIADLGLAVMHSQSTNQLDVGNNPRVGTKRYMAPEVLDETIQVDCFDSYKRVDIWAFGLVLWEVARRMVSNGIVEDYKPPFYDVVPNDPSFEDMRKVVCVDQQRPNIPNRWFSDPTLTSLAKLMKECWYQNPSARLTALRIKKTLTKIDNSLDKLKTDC
Sequence of ADRBK2 (human) (P35626 whole entry, looked up): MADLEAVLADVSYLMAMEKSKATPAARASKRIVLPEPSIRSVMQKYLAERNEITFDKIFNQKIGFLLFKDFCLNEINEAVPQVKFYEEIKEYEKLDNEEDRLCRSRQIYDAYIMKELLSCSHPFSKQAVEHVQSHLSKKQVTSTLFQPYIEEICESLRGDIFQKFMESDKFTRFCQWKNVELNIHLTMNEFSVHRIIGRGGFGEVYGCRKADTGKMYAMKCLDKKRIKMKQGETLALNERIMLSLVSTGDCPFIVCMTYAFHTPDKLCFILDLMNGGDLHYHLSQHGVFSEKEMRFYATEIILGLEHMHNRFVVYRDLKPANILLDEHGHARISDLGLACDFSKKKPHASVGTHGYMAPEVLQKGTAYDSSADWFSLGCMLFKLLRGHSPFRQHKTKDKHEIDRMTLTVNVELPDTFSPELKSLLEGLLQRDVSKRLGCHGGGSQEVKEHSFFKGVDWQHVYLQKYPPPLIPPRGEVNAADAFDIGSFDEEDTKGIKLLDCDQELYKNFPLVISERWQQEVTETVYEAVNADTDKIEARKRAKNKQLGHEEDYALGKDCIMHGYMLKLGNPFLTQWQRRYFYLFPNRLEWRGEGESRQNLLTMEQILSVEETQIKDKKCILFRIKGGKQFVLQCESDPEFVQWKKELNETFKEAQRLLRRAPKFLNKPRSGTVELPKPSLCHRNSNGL
Sequence of ADRBK1 (human) (P25098 whole entry, looked up): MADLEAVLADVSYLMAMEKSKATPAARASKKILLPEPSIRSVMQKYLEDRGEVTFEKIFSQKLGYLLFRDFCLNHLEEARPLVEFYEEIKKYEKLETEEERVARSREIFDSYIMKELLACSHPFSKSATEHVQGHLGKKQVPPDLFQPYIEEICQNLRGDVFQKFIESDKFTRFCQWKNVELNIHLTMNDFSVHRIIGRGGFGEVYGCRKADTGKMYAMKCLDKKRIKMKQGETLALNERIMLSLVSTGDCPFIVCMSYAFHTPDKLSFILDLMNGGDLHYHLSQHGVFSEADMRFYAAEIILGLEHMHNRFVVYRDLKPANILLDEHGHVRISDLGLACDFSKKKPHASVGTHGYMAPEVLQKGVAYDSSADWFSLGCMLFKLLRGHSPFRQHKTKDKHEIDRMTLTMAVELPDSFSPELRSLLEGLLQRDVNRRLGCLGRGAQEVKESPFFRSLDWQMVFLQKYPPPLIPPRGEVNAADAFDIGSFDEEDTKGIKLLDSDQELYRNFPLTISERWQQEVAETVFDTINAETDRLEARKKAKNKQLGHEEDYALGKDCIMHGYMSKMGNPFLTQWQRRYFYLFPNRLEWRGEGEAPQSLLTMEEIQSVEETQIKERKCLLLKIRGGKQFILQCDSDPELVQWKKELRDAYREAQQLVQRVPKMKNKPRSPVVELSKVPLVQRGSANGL

Row | Compound | residual activity (MAP3K9 (human)) | residual activity (ADRBK2 (human)) | residual activity (ABL1 (human)) | residual activity (PTK2 (human)) | residual activity (TSSK2 (human)) | residual activity (NEK9 (human)) | residual activity (PRKCD (human)) | residual activity (RAF1 (human)) | residual activity (LYN (human)) | residual activity (LIMK1 (human)) | residual activity (DYRK2 (human)) | residual activity (DAPK2 (human)) | residual activity (FGFR4 (human)) | residual activity (ADRBK1 (human)) | residual activity (IGF1R (human)) | residual activity (STK16 (human)) | residual activity (TGFBR1 (human)) | residual activity (CDC42BPA (human)) | residual activity (MET (human)) | residual activity (CDC42BPB (human)) | other results
1 | Nc1cccc(-c2cc3c(Oc4cccc(O)c4)ncnc3[nH]2)c1 | 16.2% | 101% | 5.5% | 88.4% | 95.6% | 103% | 95.7% | 85.9% | 11.1% and 21.4% | 22.1% | 76.9% | 106% | 45.1% | 108% | 99.5% | 70.4% | 101% | 87.7% | 110% | 93.5% | residual activity (BRAF (human)): 53.2%; residual activity (TEC (human)): 108%; residual activity (IRAK4 (human)): 88.2%; residual activity (RPS6KA6 KD1 KD2 (human)): 95.4%; residual activity (PHKG2 (human)): 109%; residual activity (EPHB3 (human)): 78.8%; residual activity (NEK3 (human)): 57.5%; residual activity (CHEK1 (human)): 66.2%; residual activity (STK25 (human)): 91.6%; residual activity (ACVR1 (human)): 183%; residual activity (PDGFRA (human)): 73.6%; residual activity (SRMS (human)): 94.4%; residual activity (NEK6 (human)): 90.2%; residual activity (DSTYK (human)): 83.4%; residual activity (CAMK1G (human)): 99%; residual activity (PHKG1 (human)): 81.5%; residual activity (NUAK2 (human)): 90.3%
2 | O=C1NC(=O)C(c2cn(CCCn3ccnc3)c3ccccc23)=C1Nc1ccccc1 | 30.6% | 97.9% | 96.1% | 104% | 97.9% | 89.1% | 19.3% | 105% | 103% and 96.4% | 83.8% | 97.3% | 104% | 74.6% | 97.1% | 95.3% | 110% | 101% | 95.2% | 100% | 105% | residual activity (TEC (human)): 162%; residual activity (IRAK4 (human)): 89.5%; residual activity (TLK2 (human)): 74.1%; residual activity (RPS6KA6 KD1 KD2 (human)): 2%; residual activity (PHKG2 (human)): 107%; residual activity (EPHB3 (human)): 99.7%; residual activity (NEK3 (human)): 99.5%; residual activity (CHEK1 (human)): 76.6%; residual activity (STK25 (human)): 63.1%; residual activity (ACVR1 (human)): 94.4%; residual activity (EPHA6 (human)): 106%; residual activity (PDGFRA (human)): 94.1%; residual activity (SRMS (human)): 103%; residual activity (NEK6 (human)): 93.6%; residual activity (EPHB4 (human)): 87.9%; residual activity (DSTYK (human)): 102%; residual activity (CAMK1G (human)): 84.6%; residual activity (PHKG1 (human)): 64.6%; residual activity (NUAK2 (human)): 113%
3 | CO[C@H]1CC2CC[C@@H](C)[C@@](O)(O2)C(=O)C(=O)N2CCCC[C@H]2C(=O)OC([C@H](C)C[C@@H]2CC[C@@H](O)[C@H](OC)C2)CC(=O)[C@H](C)/C=C(\C)[C@@H](O)[C@@H](OC)C(=O)[C@H](C)C[C@H](C)/C=C/C=C/C=C/1C (stereo not given in full) | 87.3% | 98% | 103% | 103% | 99.8% | 98.2% | 102% | 97.2% | 100% and 105% | 89.8% | 100% | 112% | 76.6% | 102% | 112% | 112% | 99.5% | 95.6% | 98.1% | 103% | residual activity (TEC (human)): 138%; residual activity (IRAK4 (human)): 123%; residual activity (TLK2 (human)): 94.4%; residual activity (RPS6KA6 KD1 KD2 (human)): 118%; residual activity (PHKG2 (human)): 108%; residual activity (EPHB3 (human)): 103%; residual activity (NEK3 (human)): 99%; residual activity (CHEK1 (human)): 107%; residual activity (STK25 (human)): 129%; residual activity (ACVR1 (human)): 94.6%; residual activity (EPHA6 (human)): 99%; residual activity (PDGFRA (human)): 95.1%; residual activity (SRMS (human)): 108%; residual activity (NEK6 (human)): 97.7%; residual activity (EPHB4 (human)): 89.5%; residual activity (DSTYK (human)): 107%; residual activity (CAMK1G (human)): 93%; residual activity (PHKG1 (human)): 93%; residual activity (NUAK2 (human)): 140%

Reference: the kinase profiling compilation of Christmann-Franck et al. (2016)
